The values that follow are results of earlier work, collected in patent publication US12691140B2, “Therapeutic carbon monoxide formulations” (THE BRIGHAM AND WOMEN'S HOSPITAL, INC., priority 2020, dated 2026).

The structures appear in SMILES notation.

The conditions of this data set: dogs, abdominal insufflation to COHb levels comparable to inhalation.

Regarding `[C-]#[O+]` [CO, Carbon monoxide], the toxicity entry is listed as “no toxicity”.
